Laboratory results: patent US6737383B1, “Herbicidal oxadiazolidines” (priority 1999, dated 2004)

How the values were obtained:
bamyardgrass = assay: Test B flood test barnyardgrass; format: in vivo, Echinochloa crus-galli
Outline: (§1)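 Read-out is a visual response score from 0 (no effect) to 10 (complete control), assigned by comparison with untreated controls. Treatment was applied at the 2-leaf stage, and plants stayed in the greenhouse for twelve to sixteen days before scoring.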

morningglory = assay: Test B pre/postemergence morningglory; format: in vivo, Ipomoea hederacea
Outline: (§2)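 Herbicidal effect was estimated by eye on a ten-point control scale after plants spent twelve to sixteen days in a greenhouse following soil or foliar treatment. Foliar sprays targeted plants at one to four leaves; all doses were formulated in a non-phytotoxic solvent with surfactant.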

smallflower flatsedge = assay: Test B flood test smallflower flatsedge; format: in vivo, Cyperus difformis
Outline: as §1

soybean = assay: Test B pre/postemergence soybean; format: in vivo, Glycine max
Outline: as §2

purple nutsedge = assay: Test B pre/postemergence purple nutsedge; format: in vivo, Cyperus rotundus
Outline: as §2

sugar beet = assay: Test B pre/postemergence sugar beet; format: in vivo, Beta vulgaris
Outline: as §2

giant foxtail = assay: Test B pre/postemergence giant foxtail; format: in vivo, Setaria faberii
Outline: as §2

cocklebur = assay: Test B pre/postemergence cocklebur; format: in vivo, Xanthium strumarium
Outline: as §2

pigweed = assay: Test B pre/postemergence pigweed; format: in vivo, Amaranthus retroflexus
Outline: as §2

velvetleaf = assay: Test B pre/postemergence velvetleaf; format: in vivo, Abutilon theophrasti
Outline: as §2

rice = assay: Test B flood test rice; format: in vivo, Oryza sativa
Outline: as §1

rape = assay: Test B pre/postemergence rape; format: in vivo, Brassica napus
Outline: as §2

blackgrass = assay: Test B pre/postemergence blackgrass; format: in vivo, Alopecurus myosuroides; conditions: for Plant response rating, Blackgrass: scale of 0 to 10 where 0 is no effect and 10 is complete control
Outline: as §2

wheat = assay: Test B pre/postemergence wheat; format: in vivo, Triticum aestivum
Outline: as §2

duck salad = assay: Test B flood test duck salad; format: in vivo, Heteranthera limosa
Outline: as §1

wild oat = assay: Test B pre/postemergence wild oat; format: in vivo, Avena fatua
Outline: as §2

[1] = Rate 62 g/ha, flood test species, Pre-emergence, visual evaluation after twelve to sixteen days
[2] = Rate 125 g/ha, under heading Pre-emergence, flood test species, visual evaluation after twelve to sixteen days
[3] = Rate 250 g/ha, Pre-emergence (flood test species), scale 0 to 10, 0 is no effect, 10 is complete control
[4] = Rate 500 g/ha, Pre-emergence, flood test species, scale 0 to 10 (0 no effect, 10 complete control)
[5] = Postemergence, Rate 250 g/ha, scale 0 to 10
[6] = Postemergence, Rate 500 g/ha, scale of 0 to 10 where 0 is no effect and 10 is complete control
[7] = Preemergence, Rate 62 g/ha, scale of 0 to 10 where 0 is no effect and 10 is complete control
[8] = Preemergence, Rate 125 g/ha, scale of 0 to 10 where 0 is no effect and 10 is complete control
[9] = Preemergence, Rate 250 g/ha, scale 0 to 10, 0 is no effect, 10 is complete control
[10] = Preemergence, Rate 500 g/ha, scale 0 to 10, 0 is no effect, 10 is complete control
[11] = Rate 62 g/ha, Postemergence, scale 0 to 10 (0 no effect, 10 complete control)
[12] = Rate 125 g/ha, Postemergence, scale 0 to 10, 0 is no effect, 10 is complete control

## CCc1nc(C)c(C(C)n2c(=O)on(C(=O)N(c3ccc(F)cc3)C(C)C)c2=O)s1 (stereo not drawn) [Compound 449]
bamyardgrass; [1]
  Plant response rating, Barnyardgrass (0 to 10 scale, 0 is no effect, 10 is complete control): 0
bamyardgrass; [2]
  Barnyardgrass plant response rating (0 to 10 scale, 0 is no effect, 10 is complete control): 0
bamyardgrass; [3]
  Barnyardgrass plant response rating: 0
bamyardgrass; [4]
  Barnyardgrass plant response rating: 0
morningglory; [5]
  Morningglory plant response rating: 5
morningglory; [6]
  Morningglory plant response rating: 5
morningglory; [7]
  Plant response rating, Morningglory: 0
morningglory; [8]
  Plant response rating, Morningglory: 0
morningglory; [9]
  Morningglory plant response rating: 0
morningglory; [10]
  Morningglory plant response rating: 0
morningglory; [11]
  Morningglory plant response rating: 2
morningglory; [12]
  Morningglory plant response rating: 5
Smallflower flatsedge; [1]
  Plant response rating, S. Flatsedge (0 to 10 scale, 0 is no effect, 10 is complete control): 0
Smallflower flatsedge; [2]
  S. Flatsedge plant response rating (0 to 10 scale, 0 is no effect, 10 is complete control): 0
Smallflower flatsedge; [3]
  S. Flatsedge plant response rating: 0
Smallflower flatsedge; [4]
  S. Flatsedge plant response rating: 0
soybean; [5]
  Soybean plant response rating: 2
soybean; [6]
  Soybean plant response rating: 2
soybean; [7]
  Plant response rating, Soybean: 0
soybean; [8]
  Plant response rating, Soybean: 0
soybean; [9]
  Soybean plant response rating: 0
soybean; [10]
  Soybean plant response rating: 2
soybean; [11]
  Soybean plant response rating: 0
soybean; [12]
  Soybean plant response rating: 1
Purple nutsedge; [5]
  Nutsedge plant response rating: 0
Purple nutsedge; [6]
  Nutsedge plant response rating: 0
Purple nutsedge; [7]
  Plant response rating, Nutsedge: 0
Purple nutsedge; [8]
  Plant response rating, Nutsedge: 0
Purple nutsedge; [9]
  Nutsedge plant response rating: 0
Purple nutsedge; [10]
  Nutsedge plant response rating: 0
Purple nutsedge; [11]
  Nutsedge plant response rating: 0
Purple nutsedge; [12]
  Nutsedge plant response rating: 0
Sugar beet; [5]
  Sugarbeets plant response rating: 0
Sugar beet; [6]
  Sugarbeets plant response rating: 3
Sugar beet; [7]
  Plant response rating, Sugarbeets: 0
Sugar beet; [8]
  Plant response rating, Sugarbeets: 0
Sugar beet; [9]
  Sugarbeets plant response rating: 0
Sugar beet; [10]
  Sugarbeets plant response rating: 0
Sugar beet; [11]
  Sugarbeets plant response rating: 0
Sugar beet; [12]
  Sugarbeets plant response rating: 0
Giant foxtail; [5]
  Giant foxtail plant response rating: 0
Giant foxtail; [6]
  Giant foxtail plant response rating: 3
Giant foxtail; [7]
  Plant response rating, Giant foxtail: 2
Giant foxtail; [8]
  Plant response rating, Giant foxtail: 6
Giant foxtail; [9]
  Giant foxtail plant response rating: 8
Giant foxtail; [10]
  Giant foxtail plant response rating: 10
Giant foxtail; [11]
  Giant foxtail plant response rating: 0
Giant foxtail; [12]
  Giant foxtail plant response rating: 0
cocklebur; [5]
  Cocklebur plant response rating: 2
cocklebur; [6]
  Cocklebur plant response rating: 3
cocklebur; [7]
  Plant response rating, Cocklebur: 0
cocklebur; [8]
  Plant response rating, Cocklebur: 0
cocklebur; [9]
  Cocklebur plant response rating: 0
cocklebur; [10]
  Cocklebur plant response rating: 0
cocklebur; [11]
  Cocklebur plant response rating: 0
cocklebur; [12]
  Cocklebur plant response rating: 0
pigweed; [5]
  Redroot pigweed plant response rating: 2
pigweed; [6]
  Redroot pigweed plant response rating: 4
pigweed; [7]
  Plant response rating, Redroot pigweed: 0
pigweed; [8]
  Plant response rating, Redroot pigweed: 0
pigweed; [9]
  Redroot pigweed plant response rating: 0
pigweed; [10]
  Redroot pigweed plant response rating: 3
pigweed; [11]
  Redroot pigweed plant response rating: 0
pigweed; [12]
  Redroot pigweed plant response rating: 0
velvetleaf; [5]
  Velvetleaf plant response rating: 0
velvetleaf; [6]
  Velvetleaf plant response rating: 0
velvetleaf; [7]
  Plant response rating, Velvetleaf: 0
velvetleaf; [8]
  Plant response rating, Velvetleaf: 0
velvetleaf; [9]
  Velvetleaf plant response rating: 0
velvetleaf; [10]
  Velvetleaf plant response rating: 0
velvetleaf; [11]
  Velvetleaf plant response rating: 0
velvetleaf; [12]
  Velvetleaf plant response rating: 0
rice; [1]
  Plant response rating, Rice (0 to 10 scale, 0 is no effect, 10 is complete control): 0
rice; [2]
  Rice plant response rating (0 to 10 scale, 0 is no effect, 10 is complete control): 0
rice; [3]
  Rice plant response rating: 0
rice; [4]
  Rice plant response rating: 0
rape; [5]
  Rape plant response rating: 0
rape; [6]
  Rape plant response rating: 3
rape; [7]
  Plant response rating, Rape: 0
rape; [8]
  Plant response rating, Rape: 0
rape; [9]
  Rape plant response rating: 0
rape; [10]
  Rape plant response rating: 0
rape; [11]
  Rape plant response rating: 0
rape; [12]
  Rape plant response rating: 0
blackgrass; [5]
  Blackgrass plant response rating: 0
blackgrass; Preemergence, Rate 62 g/ha
  Plant response rating, Blackgrass: 0
blackgrass; Preemergence, Rate 125 g/ha
  Plant response rating, Blackgrass: 0
blackgrass; [9]
  Blackgrass plant response rating: 0
blackgrass; [10]
  Blackgrass plant response rating: 3
blackgrass; [11]
  Blackgrass plant response rating: 0
blackgrass; [12]
  Blackgrass plant response rating: 0
wheat; [5]
  Wheat plant response rating: 0
wheat; [6]
  Wheat plant response rating: 3
wheat; [7]
  Plant response rating, Wheat: 0
wheat; [8]
  Plant response rating, Wheat: 0
wheat; [9]
  Wheat plant response rating: 0
wheat; [10]
  Wheat plant response rating: 0
wheat; [11]
  Wheat plant response rating: 0
wheat; [12]
  Wheat plant response rating: 0
Duck salad; [1]
  Plant response rating, Ducksalad (0 to 10 scale, 0 is no effect, 10 is complete control): 0
Duck salad; [2]
  Ducksalad plant response rating (0 to 10 scale, 0 is no effect, 10 is complete control): 0
Duck salad; [3]
  Ducksalad plant response rating: 0
Duck salad; [4]
  Ducksalad plant response rating: 0
Wild oat; [5]
  Wild oats plant response rating: 0
Wild oat; [6]
  Wild oats plant response rating: 4
Wild oat; [7]
  Plant response rating, Wild oats: 0
Wild oat; [8]
  Plant response rating, Wild oats: 0
Wild oat; [9]
  Wild oats plant response rating: 0
Wild oat; [10]
  Wild oats plant response rating: 0
Wild oat; [11]
  Wild oats plant response rating: 0
Wild oat; [12]
  Wild oats plant response rating: 0
